Experimental data as given in ChEMBL document CHEMBL6182882, “Evodiamine-Based Nitroreductase Responsive Theranostic Agents for Treatment of Colon Cancer” (J Med Chem, 2025).
Calls of active or inactive are those of the source. The rule behind the calls is not given here.

Experiments:
[1] = (§1) Prodrug activation in phosphate buffer saline at pH 7.4 assessed as Escherichia coli nitroreductase mediated 3-fluoro-10-hydroxy-14-methyl-8,13,13b,14-tetrahydroindolo[2',3':3,4]pyrido[2,1-b]quinazolin-5(7H)-one formation by measuring fluorescence emission intensity at 25 uM incubated for 2 hrs in presence of NADH by fluorescence spectrophotometric analysis; conditions: isolated protein, pH 7.4, 2 h
[2] = test system: Fusobacterium nucleatum; experiment: Antibacterial activity against Fusobacterium nucleatum; type: functional
[3] = test system: A549; experiment: Cytotoxicity against human A549 cells assessed as inhibition of cell growth incubated for 72 hrs under hypoxic conditions by CCK-8 assay; type: functional, cell-based; conditions: A549, 72 h
[4] = Cytotoxicity against human HUVEC cells assessed as inhibition of cell growth incubated for 72 hrs under normoxic condition by CCK-8 assay; type: toxicity, cell-based
[5] = Metabolic stability in ICR mouse liver microsomes assessed as intrinsic clearance; type: ADME, Microsome; conditions: read-out: CLH
[6] = test system: HCT-116; experiment: Cytotoxicity against human HCT-116 cells assessed as inhibition of cell growth incubated for 72 hrs under hypoxic conditions by CCK-8 assay; type: functional, cell-based; conditions: HCT-116, 72 h
[7] = Metabolic stability in ICR mouse liver microsomes assessed as terminal half life; type: ADME, Microsome; conditions: read-out: beta t1/2
[8] = test system: A549; experiment: Induction of cell cycle arrest in human A549 cells assessed as accumulation of cells at G2/M phase at 1.0 uM measured after 24 hrs by flow cytometric analysis (reference value: 3.81%); type: functional
[9] = test system: HCT-116; experiment: Induction of cell cycle arrest in human HCT-116 cells assessed as accumulation of cells at G1 phase at 0.2 uM measured after 24 hrs by flow cytometric analysis (reference value: 48.40 %); type: functional
[10] = test system: HCT-116; experiment: Induction of cell cycle arrest in human HCT-116 cells assessed as accumulation of cells at S phase at 0.2 uM measured after 24 hrs by flow cytometric analysis (reference value: 33.15 %); type: functional
[11] = Drug localization in Cell membrane of human HCT-116 cells at 25 uM incubated for 2 hrs by Dio- tracker green dye based confocal imaging analysis; type: ADME, cell membranes; conditions: hct-116, 2 h
[12] = test system: HCT-116; experiment: Induction of cell cycle arrest in human HCT-116 cells assessed as accumulation of cells at S phase at 0.04 uM measured after 24 hrs by flow cytometric analysis (reference value: 33.15 %); type: functional
[13] = test system: A549; experiment: Binding affinity to NTR in human A549 cells assessed as increase in fluorescence intensity at 25 uM incubated for 2 hrs under 2 to 10 % hypoxic condition by confocal fluorescence imaging based analysis; type: cell-based
[14] = as §1, with “10” for “25”, “of 1 to 7 microg/ml NTR and” for “of”; conditions: isolated protein, pH 7.4, 2 h
[15] = test system: HCT-116; experiment: Induction of cell cycle arrest in human HCT-116 cells assessed as accumulation of cells at S phase at 1.0 uM measured after 24 hrs by flow cytometric analysis (reference value: 33.15 %); type: functional
[16] = Drug localization in nucleus of human HCT-116 cells at 25 uM incubated for 2 hrs by […] dye based confocal imaging analysis; type: ADME, subcellular; conditions: hct-116, 2 h
[17] = test system: HCT-116; experiment: Induction of cell cycle arrest in human HCT-116 cells assessed as accumulation of cells at G2/M phase at 0.2 uM measured after 24 hrs by flow cytometric analysis (reference value: 18.45 %); type: functional
[18] = test system: A549; experiment: Induction of apoptosis in human A549 cells assessed as apoptotic cells at 0.04 to 1.0 uM measured after 48 hrs by flow cytometric analysis (reference value: 6.44%); type: functional; conditions: dose 0.04-1 µM
[19] = test system: A549; experiment: Cytotoxicity against human A549 cells assessed as inhibition of cell growth incubated for 72 hrs under normoxic conditions by CCK-8 assay; type: functional, cell-based; conditions: A549, 72 h
[20] = Toxicity in male nude mouse assessed as change in body weight at 10 mg/kg, ip administered twice daily for 14 consecutive days; type: organism-based; conditions: in vivo
[21] = test system: HCT-116; experiment: Antitumor activity against human HCT-116 cells xenografted in male nude mouse assessed as tumor growth inhibition at 10 mg/kg, ip administered twice daily for 14 consecutive days; type: functional; conditions: read-out: TGI
[22] = test system: HCT-116; experiment: Induction of cell cycle arrest in human HCT-116 cells assessed as accumulation of cells at G1 phase at 0.04 uM measured after 24 hrs by flow cytometric analysis (reference value: 48.40 %); type: functional
[23] = test system: A549; experiment: Induction of cell cycle arrest in human A549 cells assessed as accumulation of cells at G2/M phase at 0.04 uM measured after 24 hrs by flow cytometric analysis relative to control; type: functional
[24] = test system: A549; experiment: Induction of cell cycle arrest in human A549 cells assessed as accumulation of cells at G2/M phase at 0.2 uM measured after 24 hrs by flow cytometric analysis (reference value: 3.81%); type: functional
[25] = Drug localization in endoplasmic reticulum of human HCT-116 cells at 25 uM incubated for 2 hrs by ER-tracker red dye based confocal imaging analysis; type: ADME, subcellular; conditions: hct-116, 2 h
[26] = Drug localization in lysosome of human A549 cells at 25 uM incubated for 2 hrs by Lyso-tracker red dye based confocal imaging analysis; type: ADME, subcellular; conditions: a549, 2 h
[27] = Drug uptake in male nude mouse tumor xenografted in human HCT-116 cells at 10 mg/kg, […] administered via tail vein and measured at 12 hrs post injection by fluorescence imaging analysis; type: ADME, organism-based, Neoplasm; conditions: in vivo
[28] = test system: HCT-116; experiment: Induction of apoptosis in human HCT-116 cells assessed as apoptotic cells at 0.04 to 1.0 uM measured after 48 hrs by flow cytometric analysis (reference value: 4.57%); type: functional; conditions: dose 0.04-1 µM
[29] = test system: HUVEC; experiment: Binding affinity to NTR in human HUVEC cells assessed as fluorescence intensity at 10 to 100 uM incubated for 2 hrs by confocal fluorescence microscopic analysis; type: cell-based; conditions: dose 10-100 µM
[30] = test system: HCT-116; experiment: Binding affinity to NTR in human HCT-116 cells assessed as increase in fluorescence intensity at 25 uM incubated for 2 hrs under 2 to 10 % hypoxic condition by confocal fluorescence imaging based analysis; type: cell-based
[31] = target: T1, DNA topoisomerase 1 (Homo sapiens) (UniProt P11387); experiment: Inhibition of topoisomerase 1 (unknown origin) […] activity using pBR322 DNA as substrate at 125 to 250 uM incubated for 15 mins by ethidium bromide staining based agarose gel electrophoresis; conditions: dose 125-250 µM
T1 sequence (whole entry): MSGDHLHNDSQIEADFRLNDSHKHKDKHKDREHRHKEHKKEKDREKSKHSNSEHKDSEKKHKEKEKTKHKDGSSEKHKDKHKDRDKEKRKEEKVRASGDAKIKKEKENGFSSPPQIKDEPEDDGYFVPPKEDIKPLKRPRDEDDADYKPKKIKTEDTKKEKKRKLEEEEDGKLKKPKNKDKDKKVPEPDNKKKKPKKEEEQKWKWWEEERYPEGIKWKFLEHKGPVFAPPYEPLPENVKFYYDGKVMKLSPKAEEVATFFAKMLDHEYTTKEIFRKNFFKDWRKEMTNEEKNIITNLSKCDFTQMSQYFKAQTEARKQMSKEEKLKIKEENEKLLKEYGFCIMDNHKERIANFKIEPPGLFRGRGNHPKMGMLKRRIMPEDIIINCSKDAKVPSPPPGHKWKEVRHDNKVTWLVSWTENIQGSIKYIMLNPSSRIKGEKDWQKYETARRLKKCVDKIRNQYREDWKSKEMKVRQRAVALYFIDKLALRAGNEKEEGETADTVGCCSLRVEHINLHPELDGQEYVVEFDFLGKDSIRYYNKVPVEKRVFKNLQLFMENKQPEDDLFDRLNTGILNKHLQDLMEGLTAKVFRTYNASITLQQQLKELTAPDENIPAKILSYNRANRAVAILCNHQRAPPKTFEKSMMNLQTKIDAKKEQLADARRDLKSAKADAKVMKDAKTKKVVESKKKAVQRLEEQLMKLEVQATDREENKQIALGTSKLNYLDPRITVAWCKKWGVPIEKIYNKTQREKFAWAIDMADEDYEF

[32] = Drug uptake in male nude mouse kidney xenografted in human HCT-116 cells at 10 mg/kg, […] administered via tail vein and measured at 12 hrs post injection by fluorescence imaging analysis; type: ADME, organism-based; conditions: in vivo
[33] = test system: HCT-116; experiment: Induction of cell cycle arrest in human HCT-116 cells assessed as accumulation of cells at G2/M phase at 0.04 uM measured after 24 hrs by flow cytometric analysis (reference value: 18.45 %); type: functional
[34] = Drug localization in lysosome of human HCT-116 cells at 25 uM incubated for 2 hrs by Lyso-tracker red dye based confocal imaging analysis; type: ADME, subcellular; conditions: hct-116, 2 h
[35] = test system: Bacteroides fragilis; experiment: Antibacterial activity against Bacteroides fragilis; type: functional
[36] = test system: HCT-116; experiment: Induction of cell cycle arrest in human HCT-116 cells assessed as accumulation of cells at G2/M phase at 1.0 uM measured after 24 hrs by flow cytometric analysis (reference value: 18.45 %); type: functional
[37] = test system: HCT-116; experiment: Cytotoxicity against human HCT-116 cells assessed as inhibition of cell growth incubated for 72 hrs under normoxic conditions by CCK-8 assay; type: functional, cell-based; conditions: HCT-116, 72 h
[38] = test system: HCT-116; experiment: Binding affinity to NTR in human HCT-116 cells assessed as increase in fluorescence intensity at 10 to 100 uM incubated for 2 hrs by confocal fluorescence microscopic analysis; type: cell-based; conditions: dose 10-100 µM
[39] = test system: A549; experiment: Binding affinity to NTR in human A549 cells assessed as increase in fluorescence intensity at 10 to 100 uM incubated for 2 hrs by confocal fluorescence microscopic analysis; type: cell-based; conditions: dose 10-100 µM
[40] = test system: HCT-116; experiment: Induction of cell cycle arrest in human HCT-116 cells assessed as accumulation of cells at G1 phase at 1.0 uM measured after 24 hrs by flow cytometric analysis (reference value: 48.40 %); type: functional
[41] = Drug localization in Mitochondria of human HCT-116 cells at 25 uM incubated for 2 hrs by Mito-tracker green dye based confocal imaging analysis; type: ADME; conditions: hct-116, 2 h
[42] = as §1, with “measuring fold increase in” for “measuring”; conditions: isolated protein, pH 7.4, 2 h
[43] = as §1, with “incubated for 0.5 to 2 hrs” for “incubated for 2 hrs”, “presence of 1 to 7 microg/ml NTR and NADH by” for “presence of NADH by”; conditions: isolated protein, pH 7.4, 25 µM, time 0.5-2 hrs
[44] = test system: HCT-116; experiment: Antitumor activity against human HCT-116 cells xenografted in male nude mouse assessed as tumor growth inhibition at 0.5 mg/kg, ip administered twice daily for 14 consecutive days; type: functional; conditions: read-out: TGI
[45] = Toxicity in male nude mouse assessed as change in body weight at 0.5 mg/kg, ip administered twice daily for 14 consecutive days; type: organism-based; conditions: in vivo

CN1c2ccc(F)cc2C(=O)N2CCc3c([nH]c4ccc(OC(=O)OCc5cc6ccc(OCc7ccc([N+](=O)[O-])cc7)cc6oc5=O)cc34)C21 (stereo not drawn)
Drug metabolism [1]: metabolite_detected

CN1c2ccc(F)cc2C(=O)N2CCc3c([nH]c4ccc(O)cc34)C21 (stereo not drawn)
MIC50 [2]: > 64 µg/mL
IC50 [3]: 15 nM
IC50 at 72 h [4]: 44 nM
CLint scaled [5]: 555 mL/min/kg
IC50 [6]: 15 nM
half-life [7]: 9.83 min

CN1c2ccc(F)cc2C(=O)N2CCc3c([nH]c4ccc(OC(=O)CCC(=O)OCc5cc6ccc(OCc7ccc([N+](=O)[O-])cc7)cc6oc5=O)cc34)C21 (stereo not drawn)
Drug metabolism [1]: metabolite_detected

CN1c2ccc(F)cc2C(=O)N2CCc3c([nH]c4ccc(OC(=O)/C=C/C(=O)OCc5cc6ccc(OCc7ccccc7)cc6oc5=O)cc34)C21 (stereo not drawn)
Drug metabolism [1]: metabolite_notdetected

CN1c2ccc(F)cc2C(=O)N2CCc3c([nH]c4ccc(OC(=O)/C=C/C(=O)OCc5cc6ccc(OCc7ccc([N+](=O)[O-])cc7)cc6oc5=O)cc34)C21 (stereo not drawn)
Activity [8]: 59.51%
Activity [9]: 7.74%
Activity [10]: 17.36%
Drug uptake [11]: Active
Activity [12]: 32.22%
Activity [13]: Active
IC50 [3]: 38 nM
Drug metabolism [14]: metabolite_detected
Activity [15]: 2.78%
Drug uptake [16]: Active
Activity [17]: 74.9%
Activity [18]: 18.27%
IC50 at 72 h [4]: 120 nM
IC50 [19]: 255 nM
Activity [20]: Non-toxic
inhibition in vivo at 10 mg/kg [21]: 76.1%
Activity [22]: 43.77%
Activity [23]: 10.87%
Activity [24]: 47.03%
Drug uptake [25]: Active
Drug uptake [26]: Active
Drug uptake [27]: Active
Activity [28]: 13.04%
Drug metabolism [1]: metabolite_detected
Activity [29]: Active; Weak Fluorescence Observed
Activity [30]: Active
inhibition [31]: Weak_effect
Drug uptake [32]: Active
Activity [33]: 24.01%
Drug uptake [34]: Active
CLint scaled [5]: 9.54 mL/min/kg
MIC50 [35]: > 64 µg/mL
Activity [36]: 96.66%
IC50 [37]: 145 nM
IC50 [6]: 71 nM
Activity [38]: Active; Stronger Fluorescence Intensity Observed
half-life [7]: 572 min
Activity [39]: Active
Activity [40]: 0.56%
Drug uptake [41]: Active
fold change (FC) [42]: 14
Drug metabolism [43]: metabolite_detected

CC[C@@]1(O)C(=O)OCc2c1cc1n(c2=O)Cc2cc3c(CN(C)C)c(O)ccc3nc2-1 [TOPOTECAN]
inhibition in vivo at 0.5 mg/kg [44]: 82.5%
Activity [45]: Toxic
